# Laboratory results published in patent publication US20240158412A1 (Faxian Therapeutics, LLC, priority 2021, published 2024).
# pIC50: −log10 of the molar value.
# Target: USP7 (Homo sapiens, UniProt Q93009)
# Assay: biochemical
# 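Also: fluorescence intensity readout of USP7 enzymatic activity, reaction incubated 90 min at room temperature.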
# Chain of USP7 (Q93009 whole entry): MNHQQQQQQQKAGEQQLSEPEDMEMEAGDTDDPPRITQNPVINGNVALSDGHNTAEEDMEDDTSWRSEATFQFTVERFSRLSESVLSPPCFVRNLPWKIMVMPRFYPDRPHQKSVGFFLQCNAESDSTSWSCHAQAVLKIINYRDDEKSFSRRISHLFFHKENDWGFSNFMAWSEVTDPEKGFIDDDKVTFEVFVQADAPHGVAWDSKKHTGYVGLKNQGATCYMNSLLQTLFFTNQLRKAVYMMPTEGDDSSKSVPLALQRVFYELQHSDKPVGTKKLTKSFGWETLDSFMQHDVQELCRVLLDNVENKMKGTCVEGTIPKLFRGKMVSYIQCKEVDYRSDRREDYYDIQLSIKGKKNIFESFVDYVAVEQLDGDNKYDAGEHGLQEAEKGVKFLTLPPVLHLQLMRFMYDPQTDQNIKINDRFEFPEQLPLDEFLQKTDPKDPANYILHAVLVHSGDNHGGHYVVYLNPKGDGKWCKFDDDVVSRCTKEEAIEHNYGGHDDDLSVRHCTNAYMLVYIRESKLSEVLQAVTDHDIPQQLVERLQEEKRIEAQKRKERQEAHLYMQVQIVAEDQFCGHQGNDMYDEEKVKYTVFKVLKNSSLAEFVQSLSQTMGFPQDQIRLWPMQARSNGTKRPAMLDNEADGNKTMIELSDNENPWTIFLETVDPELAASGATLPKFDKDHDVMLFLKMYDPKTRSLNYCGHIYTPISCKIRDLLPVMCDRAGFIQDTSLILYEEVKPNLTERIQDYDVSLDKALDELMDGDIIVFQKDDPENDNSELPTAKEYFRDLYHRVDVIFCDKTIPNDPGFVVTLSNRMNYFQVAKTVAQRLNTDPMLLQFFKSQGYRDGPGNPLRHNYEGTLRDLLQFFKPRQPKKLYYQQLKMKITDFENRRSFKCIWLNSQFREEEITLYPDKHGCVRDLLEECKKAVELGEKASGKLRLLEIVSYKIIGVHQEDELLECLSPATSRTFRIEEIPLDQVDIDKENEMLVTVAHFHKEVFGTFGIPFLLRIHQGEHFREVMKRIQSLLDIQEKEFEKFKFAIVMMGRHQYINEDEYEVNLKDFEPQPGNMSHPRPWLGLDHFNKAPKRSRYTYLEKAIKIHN
row,pIC50,Structure (SMILES)
1,> 8.00,"N[C@H]1C[C@@H](N2CCCc3cc(Cl)cc(-c4ccnc5cc(CN6C(=O)CCC6=O)sc45)c32)C1 (single isomer, unassigned) [Example 42a, cis-1-((7-(1-(3-aminocyclobutyl)-6-chloro-1,2,3,4-tetrahydroquinolin-8-yl)thieno[3,2-b]pyridin-2-yl)methyl)pyrrolidine-2,5-dione]"
2,7.00 to 8.00,"N[C@H]1C[C@H](N2CCCc3cc(Cl)cc(-c4ccnc5cc(CN6C(=O)CCC6=O)sc45)c32)C1 (single isomer, unassigned) [Example 42b, trans-1-((7-(1-(3-aminocyclobutyl)-6-chloro-1,2,3,4-tetrahydroquinolin-8-yl)thieno[3,2-b]pyridin-2-yl)methyl)pyrrolidine-2,5-dione]"
3,< 6.00,"O=C1CCC(=O)N1Cc1cc2nccc(-c3cc(Cl)cc4c3N(C3CNC3)C[C@@H]3C[C@H]43)c2s1 (single isomer, unassigned) [Example 43a]"
4,7.00 to 8.00,"O=C1CCC(=O)N1Cc1cc2nccc(-c3cc(Cl)cc4c3N(C3CNC3)C[C@H]3C[C@@H]43)c2s1 (single isomer, unassigned) [Example 43b]"
5,7.00 to 8.00,"C[C@H]1CCc2cc(Cl)cc(-c3ccnc4cc(CN5C(=O)CCC5=O)sc34)c2N1[C@@H]1CCNC1 (single isomer, unassigned) [Example 44a]"
6,6.00 to 7.00,"C[C@H]1CCc2cc(Cl)cc(-c3ccnc4cc(CN5C(=O)CCC5=O)sc34)c2N1[C@H]1CCNC1 (single isomer, unassigned) [Example 44b]"
7,7.00 to 8.00,"C[C@@H]1CCc2cc(Cl)cc(-c3ccnc4cc(CN5C(=O)CCC5=O)sc34)c2N1[C@@H]1CCNC1 (single isomer, unassigned) [Example 44c]"
8,> 8.00,"O=C1CCC(=O)N1Cc1cc2nccc(-c3cc(Cl)cc4c3N([C@H]3CCCNCC3)CCC4)c2s1 (single isomer, unassigned) [Example 47a]"
9,> 8.00,"O=C1CCC(=O)N1Cc1cc2nccc(-c3cc(Cl)cc4c3N([C@@H]3CCCNCC3)CCC4)c2s1 (single isomer, unassigned) [Example 47b]"
10,> 8.00,"O=C1CCC(=O)N1Cc1cc2nccc(-c3cc(Cl)cc4c3N([C@H]3CCCNC3)CCC4)c2s1 (single isomer, unassigned) [Example 51a]"
11,7.00 to 8.00,"O=C1CCC(=O)N1Cc1cc2nccc(-c3cc(Cl)cc4c3N([C@@H]3CCCNC3)CCC4)c2s1 (single isomer, unassigned) [Example 51b]"
12,> 8.00,"O=C1CCC(=O)N1Cc1cc2nccc(-c3cc(Cl)cc4c3C(N3CCNCC3)CCO4)c2s1 (single isomer, unassigned) [Example 52b]"
13,7.00 to 8.00,"O=C1CCC(=O)N1Cc1cc2nccc(-c3cc(C(F)(F)F)cc4c3N([C@@H]3CCNC3)CCC4)c2s1 (single isomer, unassigned) [Example 78]"
14,> 8.00,"O=C1CCC(=O)N1Cc1cc2nccc(-c3cc(C(F)(F)F)cc4c3N([C@H]3CCNC3)CCC4)c2s1 (single isomer, unassigned) [Example 79]"
15,7.00 to 8.00,"O=c1ccn(CC(F)F)c(=O)n1Cc1cc2nccc(-c3cc(C(F)(F)F)cc4c3N([C@@H]3CCNC3)CCC4)c2s1 (single isomer, unassigned) [Example 80]"
16,> 8.00,"O=c1ccn(CC(F)(F)F)c(=O)n1Cc1cc2ncnc(-c3cc(Cl)cc4c3N([C@@H]3CCNC3)CCC4)c2s1 (single isomer, unassigned) [Example 90]"
17,> 8.00,"C[C@H]1C[C@@H](N2CCCc3cc(Cl)cc(-c4ccnc5cc(Cn6c(=O)ccn(CC(F)(F)F)c6=O)sc45)c32)CN1 (single isomer, unassigned) [Example 95a]"
18,7.00 to 8.00,"C[C@@H]1C[C@H](N2CCCc3cc(Cl)cc(-c4ccnc5cc(Cn6c(=O)ccn(CC(F)(F)F)c6=O)sc45)c32)CN1 (single isomer, unassigned) [Example 95b]"
19,> 8.00,"O=C1CCC(=O)N1Cc1cc2nccc(-c3cc(Cl)cc4c3N([C@H]3CNC[C@@H]3F)CCC4)c2s1 (single isomer, unassigned) [Example 96a]"
